Drawing on ChEMBL document CHEMBL1151999, “3-Lithioquinuclidin-2-ene: A novel intermediate for the synthesis of muscarinic agonists and antagonists” (Bioorg Med Chem Lett, 1994), this text covers Ki and Kb for eight compounds.

For assay [1], the target named is T1, Muscarinic acetylcholine receptor M1 (Homo sapiens, UniProt P11229).
T1 sequence (P11229 whole entry): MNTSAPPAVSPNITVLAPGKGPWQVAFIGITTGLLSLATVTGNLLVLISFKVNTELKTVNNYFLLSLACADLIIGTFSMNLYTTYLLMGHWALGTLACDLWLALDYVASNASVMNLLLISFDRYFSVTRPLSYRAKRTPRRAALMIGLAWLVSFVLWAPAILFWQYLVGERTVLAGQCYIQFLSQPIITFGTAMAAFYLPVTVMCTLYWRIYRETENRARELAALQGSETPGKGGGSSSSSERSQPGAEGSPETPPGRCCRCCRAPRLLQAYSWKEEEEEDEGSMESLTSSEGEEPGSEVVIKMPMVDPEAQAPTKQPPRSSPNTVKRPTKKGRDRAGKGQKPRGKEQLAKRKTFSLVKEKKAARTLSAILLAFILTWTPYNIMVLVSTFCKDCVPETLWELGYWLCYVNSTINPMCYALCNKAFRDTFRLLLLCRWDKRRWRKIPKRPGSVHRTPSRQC
As to the kind of experiment: In vitro binding affinity towards muscarinic receptor in cerebral cortex (M1) was determined. The class given is tissue-based.

Assay [2] has as its target Muscarinic acetylcholine receptor. The assay can be described thus: In vitro binding affinity towards muscarinic receptor in urinary bladder was determined. The format is protein assay, Cavia porcellus.
Assay [3] addresses T2, Muscarinic acetylcholine receptor M2 (Homo sapiens, UniProt P08172).
T2 sequence (P08172 whole entry): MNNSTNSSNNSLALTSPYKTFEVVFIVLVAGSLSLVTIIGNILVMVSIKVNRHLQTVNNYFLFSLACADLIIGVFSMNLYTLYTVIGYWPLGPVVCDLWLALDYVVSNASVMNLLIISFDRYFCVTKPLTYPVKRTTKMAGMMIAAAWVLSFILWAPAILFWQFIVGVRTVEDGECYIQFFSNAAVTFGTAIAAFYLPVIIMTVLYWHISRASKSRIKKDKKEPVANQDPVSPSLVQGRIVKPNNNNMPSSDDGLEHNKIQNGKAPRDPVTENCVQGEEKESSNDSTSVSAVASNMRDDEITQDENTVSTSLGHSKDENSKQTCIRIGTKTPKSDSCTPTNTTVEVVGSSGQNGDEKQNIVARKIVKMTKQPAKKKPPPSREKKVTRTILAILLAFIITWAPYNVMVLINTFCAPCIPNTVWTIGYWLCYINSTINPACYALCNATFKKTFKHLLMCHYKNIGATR
The assay can be described thus: In vitro binding affinity towards muscarinic receptor in heart (M2) was determined.

The target of assay [4] is Muscarinic acetylcholine receptor M3 (Homo sapiens, UniProt P20309). The assay can be described thus: In vitro binding affinity towards muscarinic receptor in parotid gland (M3). The class given is tissue-based.
Muscarinic acetylcholine receptor M3, sequence (P20309 whole entry): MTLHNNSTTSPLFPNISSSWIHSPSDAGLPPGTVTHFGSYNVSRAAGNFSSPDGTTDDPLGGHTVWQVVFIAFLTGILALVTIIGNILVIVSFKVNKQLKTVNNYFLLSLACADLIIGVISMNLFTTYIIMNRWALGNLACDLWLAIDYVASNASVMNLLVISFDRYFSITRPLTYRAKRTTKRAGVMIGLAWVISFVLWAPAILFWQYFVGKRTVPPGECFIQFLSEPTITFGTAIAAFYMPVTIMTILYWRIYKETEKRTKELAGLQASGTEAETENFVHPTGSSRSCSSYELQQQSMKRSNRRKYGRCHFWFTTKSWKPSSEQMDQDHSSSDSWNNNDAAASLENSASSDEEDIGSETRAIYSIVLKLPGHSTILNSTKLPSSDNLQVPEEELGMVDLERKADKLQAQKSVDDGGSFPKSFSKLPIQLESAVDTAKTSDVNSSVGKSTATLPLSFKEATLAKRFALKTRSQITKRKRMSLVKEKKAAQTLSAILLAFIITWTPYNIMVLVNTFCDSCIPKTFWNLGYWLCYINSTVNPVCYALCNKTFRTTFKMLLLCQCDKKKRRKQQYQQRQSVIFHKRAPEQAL
Assay [5] deals with Muscarinic acetylcholine receptor (Cavia porcellus). As to the kind of experiment: Binding affinity towards muscarinic receptor in urinary bladder was determined.

As a reminder, the Ki is the dissociation constant of the complex between target and ligand, obtained from inhibition or displacement. A lower Ki goes with higher affinity. For `OC1(C2=CN3CCC2CC3)c2ccccc2CCc2ccccc21`, the Ki in assay [1] was 2040 nM; in assay [2], 8000 nM; in assay [3] it was 2400 nM; in assay [4], 6900 nM.
For the compound `CC(=O)c1ccc(C2=CN3CCC2CC3)s1`, the Ki in assay [1] worked out at 480 nM; in assay [2] it was 2600 nM; in assay [3], 1550 nM; in assay [4], 2600 nM.
`OC1(C2=CN3CCC2CC3)c2ccccc2Oc2ccccc21`: the results for the Ki in assay [1], in assay [3] and in assay [4] were greater than 8000 nM, greater than 8000 nM and 17000 nM, respectively.
For `COc1ccccc1C(O)C1=CN2CCC1CC2` (configuration not stated), the inhibition constant Ki in assay [1] worked out at 330 nM; in assay [2], 2500 nM; in assay [3] it was 2200 nM; in assay [4], 1500 nM. In assay [5], the Kb turned out to be 450 nM.
On to `OC1(C2=CN3CCC2CC3)c2ccccc2C=Cc2ccccc21`, for which the Ki in assay [1], in assay [3] and in assay [4] was greater than 200 nM in each case.
With `c1ccc2c(c1)C(=C1CN3CCC1CC3)c1ccccc1-2`, the inhibition constant Ki in assay [1] was 50 nM; in assay [2], 249 nM; in assay [3], 98 nM; in assay [4], 100 nM. In assay [5], this compound came in with a Kb of 370 nM.
In the case of `O=Cc1ccc(C2=CN3CCC2CC3)s1`, the Ki in assay [1] was 990 nM; in assay [2] it was 5700 nM; in assay [3], 2600 nM; in assay [4], 4800 nM.
As for `OC1(C2=CN3CCC2CC3)c2ccccc2-c2ccccc21`, the Ki in assay [1], in assay [2], in assay [3] and in assay [4] was greater than 5000 nM each time.
